{"source": "paper PMC7645366", "about": "(EMBO Molecular Medicine, 2020)", "key": {"SLO [1]": {"biological_target": "T1, SLO (Streptococcus pyogenes serotype M1, UniProt P0C0I3)", "T1 sequence (P0C0I3 34-571 limits assumed)": "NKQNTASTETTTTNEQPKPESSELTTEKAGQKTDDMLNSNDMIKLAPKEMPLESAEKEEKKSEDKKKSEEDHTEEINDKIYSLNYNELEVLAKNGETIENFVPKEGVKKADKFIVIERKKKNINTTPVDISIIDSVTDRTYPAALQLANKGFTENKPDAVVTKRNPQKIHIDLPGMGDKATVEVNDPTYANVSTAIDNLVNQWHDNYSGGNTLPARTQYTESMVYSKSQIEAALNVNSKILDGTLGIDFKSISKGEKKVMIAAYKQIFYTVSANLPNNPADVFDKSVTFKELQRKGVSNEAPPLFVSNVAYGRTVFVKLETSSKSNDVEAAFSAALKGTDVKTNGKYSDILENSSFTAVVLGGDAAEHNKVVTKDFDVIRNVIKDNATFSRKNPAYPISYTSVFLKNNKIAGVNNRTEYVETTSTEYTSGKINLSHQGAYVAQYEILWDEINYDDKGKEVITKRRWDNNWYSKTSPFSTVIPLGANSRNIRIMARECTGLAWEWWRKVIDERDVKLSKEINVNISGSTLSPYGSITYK", "assay_type": "cell-based"}, "S. pneumoniae T4": {"test_system": "S. pneumoniae T4", "assay": "Mouse intranasal infection (pneumonia) model: survival, lung bacterial load, lung cytokines", "protocol": "Six‐week‐old male C57BL/6 wild‐type mice were used (Charles River, Germany). The study included 10 mice/individual group which were randomly assigned to the different treatment groups. Sample size calculations were determined according to previous experience (Subramanian et al, 2019b). […] The mice were checked at least twice every day; morning at 9 am (referred as “early check”) and evening at 7 pm (referred as “late check”). Post‐mortem, lungs were collected and washed in PBS and homogenized by passing through the 100‐μm cell strainer. Bacterial counts were determined from lung homogenates by viable count on blood agar plates. Aliquots of lung homogenates were frozen at −80°C for cytokine quantification by ELISA.\nThe levels of TNF‐α, IL‐8, and IL‐12 (p70) in the culture supernatants and mouse lung tissue were analyzed using the OptEIA ELISA kit (BD Biosciences) following the manufacturer's instructions."}, "PLY [2]": {"biological_target": "T2, PLY (Streptococcus pneumoniae serotype 4, UniProt P0C2J9)", "T2 sequence (P0C2J9 whole entry, looked up)": "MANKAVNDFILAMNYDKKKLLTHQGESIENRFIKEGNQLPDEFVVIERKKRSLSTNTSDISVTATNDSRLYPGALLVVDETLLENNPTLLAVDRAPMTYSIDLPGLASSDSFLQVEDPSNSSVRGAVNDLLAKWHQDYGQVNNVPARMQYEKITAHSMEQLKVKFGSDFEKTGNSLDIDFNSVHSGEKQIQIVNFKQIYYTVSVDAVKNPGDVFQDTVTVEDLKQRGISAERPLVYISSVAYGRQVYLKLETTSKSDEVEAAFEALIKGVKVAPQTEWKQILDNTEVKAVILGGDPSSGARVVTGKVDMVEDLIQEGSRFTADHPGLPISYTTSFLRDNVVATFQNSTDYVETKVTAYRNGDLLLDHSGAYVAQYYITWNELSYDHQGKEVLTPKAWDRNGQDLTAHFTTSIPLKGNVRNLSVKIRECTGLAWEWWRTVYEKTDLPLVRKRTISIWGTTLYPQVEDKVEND", "assay_type": "cell-based"}, "PLY [3]": {"biological_target": "T2, PLY", "assay_type": "cell-based", "remark": "listed apart in the source"}, "LLO [4]": {"biological_target": "T3, LLO (Listeria monocytogenes serovar 1/2a, UniProt P13128)", "T3 sequence (P13128 25-529)": "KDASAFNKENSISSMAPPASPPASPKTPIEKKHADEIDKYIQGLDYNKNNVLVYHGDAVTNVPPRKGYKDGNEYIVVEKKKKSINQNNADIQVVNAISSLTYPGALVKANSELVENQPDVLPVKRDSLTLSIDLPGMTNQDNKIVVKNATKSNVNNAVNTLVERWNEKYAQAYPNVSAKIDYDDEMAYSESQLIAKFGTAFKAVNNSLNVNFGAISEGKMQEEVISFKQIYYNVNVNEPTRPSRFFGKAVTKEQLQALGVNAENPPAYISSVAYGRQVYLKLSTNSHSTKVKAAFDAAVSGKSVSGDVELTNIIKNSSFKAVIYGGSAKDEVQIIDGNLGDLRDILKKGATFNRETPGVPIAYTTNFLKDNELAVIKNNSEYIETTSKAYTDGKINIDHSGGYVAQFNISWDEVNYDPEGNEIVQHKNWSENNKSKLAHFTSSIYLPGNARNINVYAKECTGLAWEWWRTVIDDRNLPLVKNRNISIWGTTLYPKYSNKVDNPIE", "assay": "Live imaging of cytolysis of THP-1 macrophages by LLO", "assay_type": "cell-based", "settings": "0.5 μg/ml LLO, 100 μM, 20 min"}, "LLO [5]": {"biological_target": "T3, LLO", "assay": "ELISA, binding of plate-bound MRC-1 peptides to LLO", "settings": "plate-bound peptide, LLO 0–0.5 μM", "procedure": "Briefly, 96‐well flat‐bottomed plates (Sigma, UK) were coated overnight with 10 μM of MRC‐1 peptides in coating buffer (15 mM Na2CO3, 35 mM NaHCO3, pH 9.6). Wells were blocked with 200 μl of 10% (v/v) FBS in PBS for 2 h and then washed three times with PBS, 0.05% (v/v) Tween 20 (Sigma). 50 μl of purified PLY, LLO, and SLO (0–1 μM) in PBS was added and incubated at 37°C for 1 h. 1 μM BSA was added to control wells. Wells were washed with PBS and bound proteins were detected by adding 100 μl of mouse α‐PLY (1:1,000), mouse α‐SLO (1:400), and rabbit α‐LLO (1:1,500) (Abcam), respectively, in blocking buffer. Plates were incubated with 100 μl of secondary anti‐rabbit/anti‐mouse IgG HRP (1:2,000) dilution in blocking buffer. Bound antibodies were detected by adding 100 μl of tetramethylbenzidine substrate solution for 30 min. Phosphoric acid (1 M) was used as the stop solution and absorbance was measured at 450 nm."}, "SLO [6]": {"biological_target": "T1, SLO", "assay_type": "cell-based", "remark": "listed apart in the source"}, "L. monocytogenes type 1": {"test_system": "L. monocytogenes type 1", "assay": "Hemolytic activity of whole bacteria, L. monocytogenes", "assay_type": "cell-based, Listeria monocytogenes", "settings": "100 μM peptide", "procedure": "All samples were assayed in triplicates."}, "LLO [7]": {"biological_target": "T3, LLO", "assay": "Cytokine ELISA, THP-1 macrophages stimulated with LLO", "assay_type": "cell-based", "settings": "18 h; for IL-8 levels in THP-1 macrophages: LLO 0.5 μg/ml, 100uM", "procedure": "Human monocytic leukemia THP‐1 cells (ATCC TIB‐202) were cultivated in R10 medium and maintained at density of 10^6 cells/ml. For differentiation into macrophages, THP‐1 cells were treated for 48 h with 20 ng/ml of phorbol myristate acetate (Sigma)."}, "[8]": {"assay": "Lung histology (H&E) and clinical symptoms after intranasal administration", "settings": "mice", "protocol": "(F) Hematoxylin and eosin (H&E) staining of mouse lungs at 24 h post intranasal"}}, "note": "Several values for one entry are separate records, joined by “and”; a condition that tells them apart may be missing. Equal values may be shown once. No end group written: not given here."}
{"sequence": "FTWSDGSPVSYEN [P2]", "values": [{"measurement": "release of IL‐8, TNF‐α and IL‐12 by THP-1 macrophages, SLO", "setting": "SLO [1]", "result": "significantly reduced"}, {"measurement": "IL-8 levels in THP-1 macrophages", "setting": "SLO [1]; 100uM, 18 h", "result": "426.5 pg/mL and 475.1 pg/mL and 490.7 pg/mL"}, {"measurement": "Mouse survival, death recorded", "setting": "S. pneumoniae T4; Mouse 1 of its group", "result": 1}, {"measurement": "Mouse survival, Time (coded)", "setting": "S. pneumoniae T4; Mouse 1 of its group, intranasal 2 × 10^6 CFU T4 with 5 μg peptide/mouse (25 μg CaP NPs)", "result": 4}, {"measurement": "CFU/ml in mouse lung homogenates", "setting": "S. pneumoniae T4; Mouse 2 of its group", "result": 160000000, "unit": "CFU/ml"}, {"measurement": "Mouse survival, Time (coded)", "setting": "S. pneumoniae T4; Mouse 2 of its group", "result": 4}, {"measurement": "Mouse survival, death recorded", "setting": "S. pneumoniae T4; Mouse 2 of its group", "result": 1}, {"measurement": "CFU/ml in mouse lung homogenates", "setting": "S. pneumoniae T4; Mouse 3 of its group", "result": 160000000, "unit": "CFU/ml"}, {"measurement": "Mouse survival, Time (coded)", "setting": "S. pneumoniae T4; Mouse 3 of its group", "result": 5}, {"measurement": "Mouse survival, death recorded", "setting": "S. pneumoniae T4; Mouse 3 of its group", "result": 1}, {"measurement": "CFU/ml in mouse lung homogenates", "setting": "S. pneumoniae T4; Mouse 4 of its group", "result": 180000000, "unit": "CFU/ml"}, {"measurement": "Mouse survival, Time (coded)", "setting": "S. pneumoniae T4; Mouse 4 of its group", "result": 6}, {"measurement": "Mouse survival, death recorded", "setting": "S. pneumoniae T4; Mouse 4 of its group", "result": 0}, {"measurement": "CFU/ml in mouse lung homogenates", "setting": "S. pneumoniae T4; Mouse 5 of its group", "result": 100000000, "unit": "CFU/ml"}, {"measurement": "Mouse survival, Time (coded)", "setting": "S. pneumoniae T4; Mouse 5 of its group", "result": 4}, {"measurement": "Mouse survival, death recorded", "setting": "S. pneumoniae T4; Mouse 5 of its group", "result": 1}, {"measurement": "CFU/ml in mouse lung homogenates", "setting": "S. pneumoniae T4; Mouse 6 of its group", "result": "2.6E+07", "unit": "CFU/ml"}, {"measurement": "Mouse survival, Time (coded)", "setting": "S. pneumoniae T4; Mouse 6 of its group", "result": 4}, {"measurement": "Mouse survival, death recorded", "setting": "S. pneumoniae T4; Mouse 6 of its group", "result": 1}, {"measurement": "CFU/ml in mouse lung homogenates", "setting": "S. pneumoniae T4; Mouse 7 of its group", "result": "2.5E+07", "unit": "CFU/ml"}, {"measurement": "Mouse survival, Time (coded)", "setting": "S. pneumoniae T4; Mouse 7 of its group", "result": 4}, {"measurement": "Mouse survival, death recorded", "setting": "S. pneumoniae T4; Mouse 7 of its group", "result": 1}, {"measurement": "CFU/ml in mouse lung homogenates", "setting": "S. pneumoniae T4; Mouse 8 of its group", "result": "1.7E+07", "unit": "CFU/ml"}, {"measurement": "Mouse survival, Time (coded)", "setting": "S. pneumoniae T4; Mouse 8 of its group", "result": 4}, {"measurement": "Mouse survival, death recorded", "setting": "S. pneumoniae T4; Mouse 8 of its group", "result": 1}, {"measurement": "CFU/ml in mouse lung homogenates", "setting": "S. pneumoniae T4; Mouse 9 of its group", "result": "1.7E+07", "unit": "CFU/ml"}, {"measurement": "Mouse survival, Time (coded)", "setting": "S. pneumoniae T4; Mouse 9 of its group", "result": 4}, {"measurement": "Mouse survival, death recorded", "setting": "S. pneumoniae T4; Mouse 9 of its group", "result": 1}, {"measurement": "CFU/ml in mouse lung homogenates", "setting": "S. pneumoniae T4; Mouse 10 of its group", "result": "1.0E+07", "unit": "CFU/ml"}, {"measurement": "Mouse survival, Time (coded)", "setting": "S. pneumoniae T4; Mouse 10 of its group", "result": 5}, {"measurement": "Mouse survival, death recorded", "setting": "S. pneumoniae T4; Mouse 10 of its group", "result": 1}, {"measurement": "IL-12 levels in mouse lung homogenates", "setting": "S. pneumoniae T4; animal in data line 1", "result": 4502.5, "unit": "pg/mL"}, {"measurement": "IL-12 levels in mouse lung homogenates", "setting": "S. pneumoniae T4; animal in data line 2", "result": 3606.25, "unit": "pg/mL"}, {"measurement": "TNF-a levels in lung", "setting": "S. pneumoniae T4; animal in data line 2", "result": 645.91, "unit": "pg/mL"}, {"measurement": "IL-12 levels in mouse lung homogenates", "setting": "S. pneumoniae T4; animal in data line 3", "result": 5321.25, "unit": "pg/mL"}, {"measurement": "TNF-a levels in lung", "setting": "S. pneumoniae T4; animal in data line 3", "result": 377.50, "unit": "pg/mL"}, {"measurement": "IL-12 levels in mouse lung homogenates", "setting": "S. pneumoniae T4; animal in data line 4", "result": 8600, "unit": "pg/mL"}, {"measurement": "TNF-a levels in lung", "setting": "S. pneumoniae T4; animal in data line 4", "result": 853.64, "unit": "pg/mL"}, {"measurement": "IL-12 levels in mouse lung homogenates", "setting": "S. pneumoniae T4; animal in data line 5", "result": 7346.25, "unit": "pg/mL"}, {"measurement": "TNF-a levels in lung", "setting": "S. pneumoniae T4; animal in data line 5", "result": 703.86, "unit": "pg/mL"}, {"measurement": "IL-12 levels in mouse lung homogenates", "setting": "S. pneumoniae T4; animal in data line 6", "result": 6002.5, "unit": "pg/mL"}, {"measurement": "TNF-a levels in lung", "setting": "S. pneumoniae T4; animal in data line 6", "result": 679.08, "unit": "pg/mL"}, {"measurement": "IL-12 levels in mouse lung homogenates", "setting": "S. pneumoniae T4; animal in data line 7", "result": 5505, "unit": "pg/mL"}, {"measurement": "TNF-a levels in lung", "setting": "S. pneumoniae T4; animal in data line 7", "result": 828.95, "unit": "pg/mL"}, {"measurement": "IL-12 levels in mouse lung homogenates", "setting": "S. pneumoniae T4; animal in data line 8", "result": 3275, "unit": "pg/mL"}, {"measurement": "TNF-a levels in lung", "setting": "S. pneumoniae T4; animal in data line 8", "result": 612.89, "unit": "pg/mL"}, {"measurement": "IL-12 levels in mouse lung homogenates", "setting": "S. pneumoniae T4; animal in data line 9", "result": 4967.5, "unit": "pg/mL"}, {"measurement": "TNF-a levels in lung", "setting": "S. pneumoniae T4; animal in data line 9", "result": 782.63, "unit": "pg/mL"}, {"measurement": "IL-12 levels in mouse lung homogenates", "setting": "S. pneumoniae T4; animal in data line 10", "result": 8335, "unit": "pg/mL"}, {"measurement": "TNF-a levels in lung", "setting": "S. pneumoniae T4; animal in data line 10", "result": 757.37, "unit": "pg/mL"}, {"measurement": "levels of TNF‐α and IL‐12 in the lung tissue", "setting": "S. pneumoniae T4; infected mice", "result": "significantly reduced"}, {"measurement": "TNF-a levels in lung", "setting": "S. pneumoniae T4; infected mice, post‐sacrifice, animal in data line 1", "result": 263.18, "unit": "pg/mL"}, {"measurement": "mouse survival", "setting": "S. pneumoniae T4; intranasal T4 2 × 10^6 CFUs, 5 μg peptide/mouse", "result": "prolonged survival"}, {"measurement": "CFU/ml in mouse lung homogenates", "setting": "S. pneumoniae T4; post‐mortem, Mouse 1 of its group", "result": 160000000, "unit": "CFU/ml"}, {"measurement": "inhibition of PLY-induced hemolysis", "setting": "PLY [2]", "result": "up to 50%"}, {"measurement": "inhibition of hemolysis induced by purified PLY", "setting": "PLY [2]", "result": "up to 50%"}, {"measurement": "IC50", "setting": "PLY [2]; read-out: ED50 (median effective dose) vs purified PLY, human, blood, 60 min", "result": 6.6, "unit": "µM"}, {"measurement": "LDH release of 3D lung tissue model", "setting": "PLY [3]", "result": "significantly reduced"}, {"measurement": "cytolysis by LLO in live imaging", "setting": "LLO [4]", "result": "protected the cells from cytolysis"}, {"measurement": "binding to LLO in ELISA", "setting": "LLO [5]", "result": "bound dose‐dependently"}, {"measurement": "cytolysis by SLO in live imaging", "setting": "SLO [6]", "result": "protected the cells from cytolysis"}, {"measurement": "hemolytic activity of L. monocytogenes type 1", "setting": "L. monocytogenes type 1", "result": "significantly reduced"}, {"measurement": "release of IL‐8, TNF‐α and IL‐12 by THP-1 macrophages, LLO", "setting": "LLO [7]; 0.5 μg/ml toxin, 100 μM peptide", "result": "significantly reduced"}, {"measurement": "IL-8 levels in THP-1 macrophages", "setting": "LLO [7]; experiment 1 of 3", "result": 437.8, "unit": "pg/mL"}, {"measurement": "IL-8 levels in THP-1 macrophages", "setting": "LLO [7]; experiment 2 of 3", "result": 441.8, "unit": "pg/mL"}, {"measurement": "IL-8 levels in THP-1 macrophages", "setting": "LLO [7]; experiment 3 of 3", "result": 448.5, "unit": "pg/mL"}, {"measurement": "toxicity by lung histology analysis (H&E)", "setting": "[8]; 24 h post intranasal administration, 5 µg peptide/mouse", "result": "not toxic"}, {"measurement": "clinical symptoms", "setting": "[8]; 24 h post‐administration", "result": "did not develop any clinical symptoms"}]}
